Laboratory results published in patent US20220152024A1, “COMBINATIONS USEFUL IN A METHOD FOR TREATING SARCOMA” (PTC THERAPEUTICS, INC., priority 2019, published 2022).
“Also recorded” adds a separate entry of the source. Read-outs that look alike come from different tables or passages of the source. Marks after values point to notes of the source that are not given here.

Columns and labels:
[1] = Rat model MTD; details: in vivo
[2] = Phase 1a clinical trial NCT02404480, safety, PK and response; format: in vivo, human; details: human, in vivo, 2.6 mg/kg, NCT02404480 PK profile, FIG. 6
Method: (§1) FIG. 5 summarizes the duration of Compound 1 treatment alone in an […] (AST) Phase 1a clinical trial (NCT02404480) of 31 evaluable patients to determine safety and pharmacokinetics. The initial human dose of 0.65 mg/kg was based on a rat model MTD of 40 mg/kg, with subsequent higher human dose ranging at 1.3 mg/kg, 2.6 mg/kg, 5.2 mg/kg, 7 mg/kg, and 10 mg/kg. The Standard 3+3 trial design, with 3 patients per cohort, allowed dose escalation for each cohort absent a dose-limiting toxicity (DLT), enabling the next cohort to be treated at the next higher dose. In the event any one patient in the cohort experienced a DLT at a particular dose, the next cohort would be treated at the same dose. A full pharmacokinetic review of each patient was taken on Day 1 and Day 29, with a partial review taken on Day 15.
(§2) NCT02404480: Phase 1 Study, open-label, first-in-human, evaluated safety and pharmacokinetic (PK) profile for use of Compound 1 in patients with advanced solid tumor (AST) cancers, determined the RP2D (recommended phase II clinical trial dose) according to escalating dose levels.
(§3) Compound 1 was administered as a […] in NCT02404480, a Phase 1a clinical trial designed to evaluate safety and PK profile for use of Compound 1 in patients with advanced solid tumor (AST) cancers.

[3] = tested on: advanced solid tumor (AST) cancers; assay: as above; format: in vivo, human; details: 31 evaluable patients; Compound 1 alone
Method: as §1, §2, §3

[4] = Predicted effective human dose from mouse exposure and measured human exposure (FIGS. 6A-D); format: in vivo; details: monotherapy, orally twice per week
Excerpt: FIGS. 6A-D summarize the pharmacokinetics of Compound 1 administered as a monotherapy in humans (as measured by AUCLast and Cmax) two times per week in the AST trial, wherein the dotted line in each figure indicates free drug concentration.
(§4) In contrast to use of allometric conversion factors, FIGS. 6A-D summarize the pharmacokinetics of Compound 1 administration in humans, showing that a conversion factor for Compound 1 based on free drug in humans compared to free drug in mice can be derived to estimate the effective target AUC and Cmax, thus accounting for the differences in free drug between these species.
(§5) As shown by the dashed line, this predicts that the estimated dose in a human patient of about 2.0 mg/kg (biw) or higher of Compound 1 would be effective.
As shown by the dashed line, this predicts that the estimated dose in a human patient of about 1.4 mg/kg (biw) or higher of Compound 1 would be effective.
As shown by the dashed line, this predicts that the estimated dose in a human patient of about 2.3 mg/kg (biw) or higher of Compound 1 would be effective.
As shown by the dashed line, this predicts that the estimated dose in a human patient of about 1.8 mg/kg (biw) or higher of Compound 1 would be effective.

[5] = tested on: SK-LMS-1 human leiomyosarcoma tumors; format: in vivo
Excerpt: (§6) Leiomyosarcoma accounts for 5-10% of soft tissue sarcomas. Typically, leiomyosarcomas have a complex karyotype and are associated with p53 mutations (Yang J, Du X, Chen K, Ylipaa A, Lazar A J, Trent J, Lev D, Pollock R, Hao X, Hunt K, Zhang W. Genetic aberrations in soft tissue leiomyosarcoma. Cancer Lett. 2009 Mar. 8; 275(1):1-8). The cell line, SK-LMS-1 has a complex karyotype and a mutated p53 gene. Chemotherapy with doxorubicin-based drug regimens such as a combination of doxorubicin and ifosfamide is the standard of care. However, these regimens usually result in cardiotoxicity, rapid development of resistance, and no significant survival advantage. In a previous study utilizing the SK-LMS-1 model, Compound 1 (Cpd 1) was tested at a constant dose (12.5 mg/kg biw) in combination with varying doses/regimens of doxorubicin and gemcitabine. […] Here, SK-LMS-1 cells were passaged for a more extended time in vivo relative to the prior study generating a more aggressive tumor model. This study tested the efficacy of Cpd 1 alone and in combination with the chemotherapeutic agents Doxil and DTIC in the treatment of mice bearing SK-LMS-1 human leiomyosarcoma tumors.
(§7) A negative coefficient indicates greater inhibition in the combination group than expected based on the activity of the monotherapies. The more negative the coefficient, the greater the activity of the combination.
Tumors were ˜222 mm3 in volume when dosing was initiated. […] Interaction coefficients were determined using the AUCs of the Day 0 to Day 28 tumor volume vs day curves. To take into account the data after Day 28, interaction coefficients were calculated for the median time to reach 1000 mm^3. A negative interaction coefficient indicates synergy.
as §7

[6] = Exposure (AUC, Cmax) of Compound 1 in the mouse, free and total drug; details: in vivo, po
Method: as §4, §5

[7] = tested on: SK-UT-1 leiomyosarcoma tumor cells; format: in vivo
Method: as §7
This study utilized SK-UT-1 leiomyosarcoma tumor cells implanted into the flank of athymic nude mice.
To compare tumor growth, the area under the curve comparing tumor volume vs day for each individual mouse was calculated and then averaged for each group.
Interaction coefficients were determined using the AUCs of the Day 0 to Day 25 tumor volume vs day curves. To take into account the data after Day 25, interaction coefficients were also calculated for the median time to reach 1000 mm3. A negative interaction coefficient indicates synergy.

[8] = tested on: SK-LMS-1 model; assay: Previous study in the SK-LMS-1 model (doxorubicin, gemcitabine combinations); format: in vivo; details: Cpd 1 12.5 mg/kg biw with varying doses/regimens of doxorubicin and gemcitabine
Excerpt: as §6

[9] = DTIC 4 mg/kg IP tiw, alone or with Cpd 1 12.5 mg/kg PO biw
[10] = DTIC 21 mg/kg IP qd5, alone or with Cpd 1 12.5 mg/kg PO biw
[11] = docetaxel 15 mg/kg IP QW6, alone or with Cpd 1 12.5 mg/kg
[12] = docetaxel 15 mg/kg IP qw6, alone or with Cpd 1 12.5 mg/kg biw6

Cc1nc2ccc(F)cc2n1-c1nc(N)c(F)c(Nc2ccc(C(F)(F)F)cc2)n1 [Compound 1, 5-fluoro-2-(6-fluoro-2-methyl-1H-benzo[d]imidazol-1-yl)-N^4-[4-(trifluoromethyl)phenyl]pyrimidine-4,6-diamine]
MTD [1]: 40 mg/kg
AUC(0-t) ([2]; read-out: target AUCLast): 13100 ng·h/mL
Cmax ([2]; read-out: target Cmax): 679 ng/mL
patients with a mixed/partial response [3]: 2/31
patients with stable disease [3]: 5/31
minimum effective amount for a 70 kg human subject, for Cmax ([4]; targeting free drug at 12.5 mg/kg in the mouse): about 124 mg
minimum effective amount for a 70 kg human subject, for Cmax ([4]; targeting total drug at 12.5 mg/kg in the mouse): about 226 mg
median time for tumor volume for individual mice to reach 1000 mm^3 ([5]; Cpd 1 12.5 mg/kg PO biw alone): 23 days
percent reduction in tumor volume at Day 28 (%) ([5]; Cpd 1 12.5 mg/kg PO biw alone): 21%
mean tumor volume on Day 32 ([5]; Cpd 1 12.5 mg/kg biw alone, all mice euthanized): 1607 mm^3
mean tumor volume on Day 28 ([5]; Cpd 1 12.5 mg/kg biw alone, ~222 mm3 at start of dosing): 1388 mm3
AUC ([6]; Dose in Mouse 10 mg/kg): 21000 ng·h/mL
Cmax ([6]; Dose in Mouse 10 mg/kg): 1100 ng/mL
AUC ([6]; Dose in Mouse 12.5 mg/kg): 26200 ng·h/mL
Cmax ([6]; Dose in Mouse 12.5 mg/kg): 1380 ng/mL
inhibition vs vehicle at Day 25 ([7]; Cpd 1 12.5 mg/kg BIW6 alone): 35%
delay of the median time for tumor growth to reach 1000 mm^3 ([7]; Cpd 1 12.5 mg/kg BIW6 alone, vs vehicle): ~1.7 fold
median time for tumor volume for individual mice to reach 1000 mm^3 ([7]; Cpd 1 12.5 mg/kg PO biw6 alone): 31.2 days
percent reduction in tumor volume at Day 28 (%) ([7]; Cpd 1 12.5 mg/kg PO biw6 alone): 35.4* %
mean tumor volume on Day 42 ([7]; Cpd 1 12.5 mg/kg alone, all mice euthanized): 1508 mm^3
mean tumor volume on Day 25 ([7]; Cpd 1 12.5 mg/kg alone, ~163 mm^3 at start of dosing): 983 mm^3

CN(C)/N=N/c1[nH]cnc1C(N)=O [DTIC, dacarbazine, reference compound]
median time for tumor volume for individual mice to reach 1000 mm^3 [5, 9]: 19 days
percent reduction in tumor volume at Day 28 (%) [5, 9]: 0%
effect on tumor growth ([5]; DTIC 4 mg/kg IP tiw, alone or with Cpd 1 12.5 mg/kg biw): no activity
median time for tumor volume for individual mice to reach 1000 mm^3 [5, 10]: 35 days
percent reduction in tumor volume at Day 28 (%) [5, 10]: 74* %

COc1cccc2c1C(=O)c1c(O)c3c(c(O)c1C2=O)C[C@@](O)(C(=O)CO)C[C@@H]3O[C@H]1C[C@H](N)[C@H](O)[C@H](C)O1 [Doxorubicin, doxorubicin]
efficacy [8]: not active as a monotherapy or in combination with Cpd 1

CC(=O)O[C@@]12CO[C@@H]1C[C@H](O)[C@@]1(C)C(=O)[C@H](O)C3=C(C)[C@@H](OC(=O)[C@H](O)[C@@H](NC(=O)OC(C)(C)C)c4ccccc4)C[C@@](O)([C@@H](OC(=O)c4ccccc4)[C@H]21)C3(C)C [docetaxel]
effect on tumor growth ([7]; docetaxel 5 mg/kg IP BIW5.5, alone or with Cpd 1): no efficacy as a monotherapy
percent reduction in tumor volume at Day 28 (%) ([7]; docetaxel 5 mg/kg IP biw5.5 (11 doses), alone or with Cpd 1 12.5 mg/kg biw6): 2.27%
median time for tumor volume for individual mice to reach 1000 mm^3 ([7]; docetaxel 5 mg/kg IP biw5.5, alone or with Cpd 1 12.5 mg/kg biw6): 18.9 days
effect on tumor growth ([7]; docetaxel 15 mg/kg IP QW6, alone or with Cpd 1): tumor growth was delayed; also recorded: more effective than Cpd 1
inhibition vs vehicle at Day 25 [7, 11]: 78%
mean tumor size at Day 25 [7, 11]: 1486 mm^3
median time for tumor volume for individual mice to reach 1000 mm^3 (Days) [7, 12]: 50.1* Days
percent reduction in tumor volume at Day 28 (%) [7, 12]: 77.8* %
